Experimental data published in patent US7939623B2, “Composition containing flavan compound” (Toyo Shinyaku Co., Ltd., priority 2004, dated 2011).

Assay: Evaluation for coagulation-precipitation of flavan compounds and proteins (peptides), Reference Example
Assay type: physicochemical
Parameters: key: +: The precipitation was remarkably observed; ±: The precipitation was slightly observed; −: Not observed
Conditions: room temperature, one week
Experimental: Then, an aqueous solution of each of the pine bark extract, the proanthocyanidin dry powder, and epigallocatechin (produced by Roche Vitamins Japan K.K.) was prepared such that a final concentration was 0.2 wt %, as a first liquid. Separately, collagen (having an average molecular weight of 300 thousands: produced by KOKEN CO., LTD), Nippi Peptide PA-100 (having an average molecular weight of 10,000: produced by Nippi, incorporated), Collagen peptide DS (having an average molecular weight of 7,000: produced by Kyowa. […] At room temperature, 1 mL of first liquid and 1 mL of second liquid were mixed. The resultant liquid mixture was allowed to stand at room temperature for one week, and it was visually observed whether or not precipitation or suspension was caused in the liquid mixture.

[1] = second liquid: collagen average MW 300,000
[2] = second liquid: collagen peptide average MW 1,000
[3] = second liquid: collagen peptide average MW 3,000
[4] = second liquid: collagen peptide average MW 5,000
[5] = second liquid: collagen peptide average MW 7,000
[6] = second liquid: collagen peptide average MW 10,000

- Precipitation (0.2 wt % first liquid 1 mL + 1 mL 10.0 wt % second liquid: glycine (MW 75), visual): −
- Precipitation [1]: +
- Suspension [1]: +
- Precipitation [2]: −
- Suspension [2]: −
- Precipitation [3]: −
- Suspension [3]: −
- Precipitation [4]: −
- Suspension [4]: −
- Precipitation [5]: −
- Suspension [5]: −
- Precipitation [6]: ±
- Suspension [6]: +
- Suspension (second liquid: glycine (MW 75)): −
Substance: Epigallocatechin gallate
